The values below come from patent US8461181B2, “Fused heterocyclic compound and use thereof” (Sumitomo Chemical Company, Ltd., priority 2009, dated 2013).

Holding throughout (type): in vivo
For assay [1], the system named is Aphis gossypii. The experiment in a line: Test Example 4: foot drench of cucumber seedling in plastic cup, inoculation after 7 days, Aphis gossypii. Particulars: soil, 144 h, 5 ml drench at foot of cucumber seedling in plastic cup, kept 7 days at 25° C., inoculated, further 6 days. As for the experimental part: The formulations of the present active compounds (3) to (7), (17), (19), (20), (22), (29) to (31), (35) to (37), (39), (41) to (45), (47) to (56), (101), (106), (121) to (123), (128), (131), (137), (139), (143), (145), (147), (211) to (213), (216) and (217) obtained by Formulation Example 5 were diluted with water so that the active ingredient concentration was 500 ppm, to prepare diluted solutions for test. Separately, a cucumber seedling (second true leaf spreading stage) planted on a plastic cup was drenched at its foot with each 5 ml of the diluted solutions, and kept in a greenhouse of 25° C. for 7 days. The cucumber leaf surface was inoculated with 30 Aphis gossypii (whole stage), and further kept in the greenhouse for 6 days, then, the number of insect of living Aphis gossypii […] on the leaves of this cucumber was checked, and the control value was calculated according to the following formula. Control value (%)={1-(Cb×Tai)/(Cai×Tb)}×100 Letters in the formula represent the following meanings. Cb: the number of insect before treatment on non-treated district Cai: the number of insect in observation on non-treated district Tb: the number of insect before treatment on treated district Tai: the number of insect in observation on treated district

In assay [2] the test system is Aphis gossypii. The experiment in a line: Test Example 3: root immersion of cucumber seedling, Aphis gossypii. Particulars: 168 h, cucumber root part immersed in 5 ml, inoculated one day after treatment, checked seven days after. As for the experimental part: The formulations of the present active compounds (18), (19), (21), (22), (24), (25), (28), (31) to (34), (46), (47), (52), (53), (101) to (104), (106) to (108), (112) to (114), (117), (118), (122), (123), (126), (128), (129), (133), (134), (138), (144), (153) to (155) and (157) obtained by Formulation Example 5 were diluted with water so that the active ingredient concentration was 500 ppm, to prepare diluted solutions for test. A root part of a cucumber seedling (first true leaf spreading stage) from which soil had been washed off was immersed in 5 ml of this diluted solution, and one day after treatment, the cucumber leaf surface was inoculated with 30 Aphis gossypii (whole stage). Further seven days after, the number of insect of living Aphis gossypii […] on the leaves of this cucumber was checked, and the control value was calculated according to the following formula. Control value (%)={1-(Cb×Tai)/(Cai×Tb)}×100 Letters in the formula represent the following meanings. Cb: the number of insect before treatment on non-treated district Cai: the number of insect in observation on non-treated district Tb: the number of insect before treatment on treated district Tai: the number of insect in observation on treated district

In assay [3] the test system is Nilaparvata lugens. The experiment in a line: Test Example 8: spray on rice seedling, 20 first instar larvae of Nilaparvata lugens. Particulars: 144 h, 10 ml sprayed on rice seedling, 20 first instar larvae released, 6 days at 25° C. On the procedure: The formulations of the present active compounds (6), (7), (18), (21), (24), (25), (28) to (30), (32), (46), (52), (101) to (103), (105) to (107), (111), (112), (115), (119) to (124), (126) to (130), (133) to (135), (139), (142), (144) to (146), (149) to (151), (153), (154), (216) and (217) obtained by Formulation Example 5 were diluted with water so that the active ingredient concentration was 500 ppm, to prepare spray solutions for test. Separately, on a rice seedling (2 weeks after sowing, second leaf spreading stage) planted on a plastic cup, the drug solutions for test prepared as described above were sprayed each in an amount of 10 ml. After drying of the drug solution sprayed on rice, 20 first instar larvae of Nilaparvata lugens were released, and kept in a greenhouse of 25° C. for 6 days. Thereafter, the number of Nilaparvata lugens […] on rice was checked, and the control value was calculated according to the following formula. Control value (%)={1-(Cb×Tai)/(Cai×Tb)}×100 Letters in the formula represent the following meanings. Cb: the number of insect before treatment on non-treated district Cai: the number of insect in observation on non-treated district Tb: the number of insect before treatment on treated district Tai: the number of insect in observation on treated district

Assay [4] concerns Nilaparvata lugens. Put plainly: Test Example 9: foot drench of rice seedling, twenty first instar larvae of Nilaparvata lugens. To be noted: soil, 144 h, 5 ml drench at foot of rice seedling, kept 7 days, twenty first instar larvae released, further 6 days. On the procedure:
The formulations of the present active compounds (6), (7), (18), (22), (25), (30), (33), (46), (47), (53), (101) to (103), (106), (121) to (124), (126) to (128), (135), (139), (216) and (217) obtained by Formulation Example 5 were diluted with water so that the active ingredient concentration was 500 ppm, to prepare diluted solutions for test. Separately, a rice seedling (2 weeks after sowing, second leaf spreading stage) planted on a plastic cup was drenched at its foot with each 5 ml of the diluted solutions, and kept in a greenhouse of 25° C. for 7 days. Twenty first instar larvae of Nilaparvata lugens were released, and further kept in the greenhouse for 6 days, then, the number of insect of living Nilaparvata lugens […] on rice was checked, and the control value was calculated according to the following formula. Control value (%)={1-(Cb×Tai)/(Cai×Tb)}×100 Letters in the formula represent the following meanings. Cb: the number of insect before treatment on non-treated district Cai: the number of insect in observation on non-treated district Tb: the number of insect before treatment on treated district Tai: the number of insect in observation on treated district

Where only a bound is given, the exact number is not on record here.

As for `Cn1c(-c2ccncc2S(C)(=O)=O)nc2cc(C(F)(F)F)ccc21` [present active compound 19, 2-(3-methanesulfonylpyridin-4-yl)-1-methyl-5-trifluoromethyl-1H-benzimidazole], the pest or weed control at 500 ppm in the assay on Aphis gossypii [1] and in the assay on Aphis gossypii [2] was ≥ 90% throughout. As to `CC[S+]([O-])c1cnccc1-c1nc2cc(C(F)(F)F)ccc2n1C` (stereo not drawn) [present active compound 21, 2-(3-ethanesulfinylpyridin-4-yl)-1-methyl-5-trifluoromethyl-1H-benzimidazole], the pest or weed control at 500 ppm in the assay with Nilaparvata lugens [3] and with Aphis gossypii [2] was ≥ 90% throughout. On to `Cn1c(-c2cc[n+]([O-])cc2)nc2cc(C(F)(F)F)ccc21` [present active compound 24, 1-methyl-2-(1-oxypyridin-4-yl)-5-trifluoromethyl-1H-benzimidazole], for which the pest or weed control at 500 ppm in the assay on Nilaparvata lugens [3] and in the assay with Aphis gossypii [2] was ≥ 90% in each case. Consider `Fc1cnccc1-c1nc2cc(C(F)(F)F)ccc2n1C1CC1` [present active compound 28, 1-cyclopropyl-2-(3-fluoropyridin-4-yl)-5-trifluoromethyl-1H-benzimidazole], for which, in the assay on Aphis gossypii [2], the pest or weed control at 500 ppm was ≥ 90%. For `C[S+]([O-])c1cnccc1-c1nc2cc(C(F)(F)F)ccc2n1C1CC1` (stereo not drawn) [present active compound 30, 1-cyclopropyl-2-(3-methanesulfinylpyridin-4-yl)-5-trifluoromethyl-1H-benzimidazole], the pest or weed control at 500 ppm in the assay with Nilaparvata lugens [4] was ≥ 90%. Regarding `CCSc1cnccc1-c1nc2cc(C(F)(F)F)ccc2n1C1CC1` [present active compound 32, 1-cyclopropyl-2-(3-ethylthiopyridin-4-yl)-5-trifluoromethyl-1H-benzimidazole], the pest or weed control at 500 ppm in the assay on Nilaparvata lugens [3] is ≥ 90%. As to `CC[S+]([O-])c1cnccc1-c1nc2cc(C(F)(F)F)ccc2n1C1CC1` (stereo not drawn) [present active compound 33, 1-cyclopropyl-2-(3-ethanesulfinylpyridin-4-yl)-5-trifluoromethyl-1H-benzimidazole], in the assay with Nilaparvata lugens [4], the pest or weed control at 500 ppm was ≥ 90%. With `CCOc1cnccc1-c1nc2cc(C(F)(F)F)cnc2n1C` [present active compound 39, 2-(3-ethoxypyridin-4-yl)-3-methyl-6-trifluoromethyl-3H-imidazo[4,5-b]pyridine], in the assay on Aphis gossypii [1], the pest or weed control at 500 ppm was ≥ 90%. In the case of `CC[S+]([O-])c1cnccc1-c1nc2cc(C(F)(F)F)cnc2n1C` (stereo not drawn) [present active compound 52, 2-(3-ethanesulfinylpyridin-4-yl)-3-methyl-6-trifluoromethyl-3H-imidazo[4,5-b]pyridine], the pest or weed control at 500 ppm in the assay on Nilaparvata lugens [3] and in the assay on Aphis gossypii [2] was ≥ 90% each time. For the compound `CC(C)Sc1cnccc1-c1nc2cc(C(F)(F)F)cnc2n1C` [present active compound 101], the pest or weed control at 500 ppm with Aphis gossypii [1] was ≥ 90%. With `Cn1c(-c2ccncc2OCC(C)(C)C)nc2cc(C(F)(F)F)cnc21` [present active compound 111], in the assay with Nilaparvata lugens [3], the pest or weed control at 500 ppm was ≥ 90%. The same measure, in the same setting: for `CC(C)COc1cnccc1-c1nc2cc(C(F)(F)F)cnc2n1C` [present active compound 112] the value was ≥ 90%; for `Cn1c(-c2ccncc2S)nc2cc(C(F)(F)F)cnc21` [present active compound 115], ≥ 90%.

Turning to `Cn1c(-c2ccncc2SC(F)(F)F)nc2cc(C(F)(F)F)ccc21` [present active compound 122], in the assay on Aphis gossypii [2], the pest or weed control at 500 ppm is ≥ 90%. On the same count and under the same terms, for `Cn1c(-c2ccncc2SCC(F)F)nc2cc(C(F)(F)F)cnc21` [present active compound 123] the value was ≥ 90%; for `Cn1c(-c2ccncc2SC(F)(F)C(F)F)nc2cc(C(F)(F)F)cnc21` [present active compound 126], ≥ 90%.

Turning to `Cn1c(-c2ccncc2SCCF)nc2cc(C(F)(F)F)cnc21` [present active compound 128], the pest or weed control at 500 ppm in the assay with Aphis gossypii [1] and in the assay on Aphis gossypii [2] was ≥ 90% throughout. As for `Cn1c(-c2ccncc2SCCF)nc2cc(C(F)(F)F)ccc21` [present active compound 129], in the assay with Aphis gossypii [2], the pest or weed control at 500 ppm is ≥ 90%. With `CN(C)S(=O)(=O)c1cnccc1-c1nc2cc(C(F)(F)F)cnc2n1C` [present active compound 131], the pest or weed control at 500 ppm in the assay with Aphis gossypii [1] was ≥ 90%. On to `C=CCSc1cnccc1-c1nc2cc(C(F)(F)F)cnc2n1C` [present active compound 133], for which the pest or weed control at 500 ppm with Aphis gossypii [2] is ≥ 90%.

Turning to `C=CCSc1cnccc1-c1nc2cc(C(F)(F)F)ccc2n1C` [present active compound 134], the pest or weed control at 500 ppm in the assay on Aphis gossypii [2] is ≥ 90%. In the case of `CNC(=O)c1cnccc1-c1nc2cc(C(F)(F)F)cnc2n1C` [present active compound 137], the pest or weed control at 500 ppm in the assay on Aphis gossypii [1] is ≥ 90%. With `CCNC(=O)c1cnccc1-c1nc2cc(C(F)(F)F)cnc2n1C` [present active compound 138], the pest or weed control at 500 ppm with Aphis gossypii [2] was ≥ 90%. Consider `Cn1c(-c2ccncc2C(=O)NCC#N)nc2cc(C(F)(F)F)cnc21` [present active compound 142], for which the pest or weed control at 500 ppm in the assay with Nilaparvata lugens [3] is ≥ 90%. With `COC(=O)c1cnccc1-c1nc2cc(C(F)(F)F)cnc2n1C` [present active compound 143], in the assay with Aphis gossypii [1], the pest or weed control at 500 ppm was ≥ 90%. With `CCOC(=O)c1cnccc1-c1nc2cc(C(F)(F)F)cnc2n1C` [present active compound 144], the pest or weed control at 500 ppm with Aphis gossypii [2] was ≥ 90%. Consider `Cn1c(-c2ccncc2SCC2CC2)nc2cc(C(F)(F)F)cnc21` [present active compound 145], for which the pest or weed control at 500 ppm with Aphis gossypii [1] was ≥ 90%.

As for `COCCSc1cnccc1-c1nc2cc(C(F)(F)F)cnc2n1C` [present active compound 147], in the assay on Aphis gossypii [1], the pest or weed control at 500 ppm was ≥ 90%. In the case of `Cn1c(-c2ccncc2SCC#N)nc2cc(C(F)(F)F)cnc21` [present active compound 153], the pest or weed control at 500 ppm with Nilaparvata lugens [3] was ≥ 90%. The same measure, in the same setting: the value for `Cn1c(-c2ccncc2SCC#N)nc2cc(C(F)(F)F)ccc21` [present active compound 154] was ≥ 90%. With `COC(=O)CSc1cnccc1-c1nc2cc(C(F)(F)F)cnc2n1C` [present active compound 157], in the assay with Aphis gossypii [2], the pest or weed control at 500 ppm was ≥ 90%.

A word on the pest or weed control: it is the degree to which the test organism was suppressed or injured, in per cent.
